Among the data in patent US8134015B2, “Compound inhibiting in vivo phosphorous transport and medicine containing the same” (Kyowa Hakko Kirin Co., Ltd., priority 2003, dated 2012) are IC50 values, retold here.

For this experiment, the target named is T1, rat NaPi-2b (Rattus norvegicus, UniProt Q9JJ09).
T1 construct: expressed in transfected cells; host or cells: Xenopus oocytes injected with cRNA
T1 sequence (Q9JJ09 1-695): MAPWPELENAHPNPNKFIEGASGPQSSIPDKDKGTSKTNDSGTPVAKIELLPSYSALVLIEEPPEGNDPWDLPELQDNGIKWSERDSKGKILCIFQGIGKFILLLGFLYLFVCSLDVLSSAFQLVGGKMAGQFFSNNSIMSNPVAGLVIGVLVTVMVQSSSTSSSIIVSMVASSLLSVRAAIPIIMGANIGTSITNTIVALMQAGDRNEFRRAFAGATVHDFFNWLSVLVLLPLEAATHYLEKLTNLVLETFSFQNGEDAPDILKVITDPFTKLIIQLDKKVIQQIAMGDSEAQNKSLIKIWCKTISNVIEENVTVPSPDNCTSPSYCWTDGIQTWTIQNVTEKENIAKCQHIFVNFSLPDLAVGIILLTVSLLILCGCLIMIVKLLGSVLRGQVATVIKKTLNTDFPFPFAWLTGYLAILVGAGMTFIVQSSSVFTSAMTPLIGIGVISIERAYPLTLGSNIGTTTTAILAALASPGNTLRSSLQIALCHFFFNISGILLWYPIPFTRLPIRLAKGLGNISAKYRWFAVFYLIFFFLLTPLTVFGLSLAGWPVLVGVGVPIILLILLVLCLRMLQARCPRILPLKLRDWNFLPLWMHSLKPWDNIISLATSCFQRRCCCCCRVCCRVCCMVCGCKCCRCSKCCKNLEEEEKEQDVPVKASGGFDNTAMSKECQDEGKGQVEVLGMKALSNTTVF
Nature of the experiment: Sodium-dependent phosphate uptake of Xenopus oocytes which expressed NaPi-2b (32P). The class given is cell-based. Particulars: Xenopus oocytes expressing rat NaPi-2b, 32P radioactive phosphorus; read-out: IC50 (phosphate uptake inhibitory activity). In short, it runs like this: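 Percent inhibition at 300 μM and 100 μM comes from the same inhibition curve of 32P uptake. Assay used oocytes expressing rat NaPi-2b after 2 days of culture.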

SMILES strings stand for the structures. pIC50: −log10 of the molar value.

The term pIC50 denotes −log10 of the IC50, conventionally taken in molar units. With `CCN(CC)CCN(C)Cc1ccc(C(=O)Nc2ccc(Br)cc2C(=O)N/N=C/c2cccc(C)c2)cc1` [Compound 286, N-[4-Bromo-2-(3-methyl-benzylidene-hydrazinocarbonyl)-phenyl]-4-{[(2-diethylamino-ethyl)-methyl-amino]-methyl}-benzamide], the pIC50 was 6.24.
With `CCN(CC)CCN(C)Cc1ccc(C(=O)Nc2ccc(Br)cc2C(=O)NN=Cc2ccc(F)cc2)cc1` [Compound 287, N-[4-Bromo-2-(4-fluoro-benzylidene-hydrazinocarbonyl)-phenyl]-4-{[(2-diethylamino-ethyl)-methyl-amino]-methyl}-benzamide] the figure was 6.96.
`CCN(CC)CCN(C)Cc1ccc(C(=O)Nc2ccc(Br)cc2C(=O)N/N=C/c2cccc(F)c2)cc1` [Compound 288, N-[4-Bromo-2-(3-fluoro-benzylidene-hydrazinocarbonyl)-phenyl]-4-{[(2-diethylamino-ethyl)-methyl-amino]-methyl}-benzamide]: the pIC50 was 5.88.
Turning to `CCN(CC)CCN(C)Cc1ccc(C(=O)Nc2ccc(Br)cc2C(=O)N/N=C/c2ccc(Cl)c(C(F)(F)F)c2)cc1` [Compound 289, N-[4-Bromo-2-(4-chloro-3-trifluoromethyl-benzylidene-hydrazinocarbonyl)-phenyl]-4-{[(2-diethylamino-ethyl)-methyl-amino]-methyl}-benzamide], the pIC50 was 5.54.
As to `CCN(CC)CCN(C)Cc1ccc(C(=O)Nc2ccc(Br)cc2C(=O)NN=Cc2ccc(OC)cc2)cc1` [Compound 290, N-[4-Bromo-2-(4-methoxy-benzylidene-hydrazinocarbonyl)-phenyl]-4-{[(2-diethylamino-ethyl)-methyl-amino]-methyl}-benzamide], the pIC50 was 5.49.
As for `CCN(CC)CCN(C)Cc1ccc(C(=O)Nc2ccc(Br)cc2C(=O)N/N=C/c2cccc(OC)c2)cc1` [Compound 291, N-[4-Bromo-2-(3-methoxy-benzylidene-hydrazinocarbonyl)-phenyl]-4-{[(2-diethylamino-ethyl)-methyl-amino]-methyl}-benzamide], the pIC50 is 5.94.
Regarding `CCN(CC)CCNCc1ccc(C(=O)Nc2ccc(Br)cc2C(=O)N/N=C/c2ccc(C)c(C)c2)cc1` [Compound 292, N-[4-Bromo-2-(3,4-dimethyl-benzylidene-hydrazinocarbonyl)-phenyl]-4-[(2-diethylamino-ethylamino)-methyl]-benzamide], the pIC50 was 5.46.
With `CCN(CC)CCNCc1ccc(C(=O)Nc2ccc(Br)cc2C(=O)N/N=C/c2ccc(C)cc2)cc1` [Compound 293, N-[4-Bromo-2-(4-methyl-benzylidene-hydrazinocarbonyl)-phenyl]-4-[(2-diethylamino-ethylamino)-methyl]-benzamide] the figure was 5.25; with `CCN(CC)CCNCc1ccc(C(=O)Nc2ccc(Br)cc2C(=O)N/N=C/c2cccc(C)c2)cc1` [Compound 294, N-[4-Bromo-2-(3-methyl-benzylidene-hydrazinocarbonyl)-phenyl]-4-[(2-diethylamino-ethylamino)-methyl]-benzamide], 5.11.
The result for `CCN(CC)CCNCc1ccc(C(=O)Nc2ccc(Br)cc2C(=O)N/N=C/c2ccc(F)cc2)cc1` [Compound 295, N-[4-Bromo-2-(4-fluoro-benzylidene-hydrazinocarbonyl)-phenyl]-4-[(2-diethylamino-ethylamino)-methyl]-benzamide] reads 5.12; that for `CCN(CC)CCNCc1ccc(C(=O)Nc2ccc(Br)cc2C(=O)N/N=C/c2cccc(F)c2)cc1` [Compound 296, N-[4-Bromo-2-(3-fluoro-benzylidene-hydrazinocarbonyl)-phenyl]-4-[(2-diethylamino-ethylamino)-methyl]-benzamide], 5.84; that for `CCN(CC)CCNCc1ccc(C(=O)Nc2ccc(Br)cc2C(=O)N/N=C/c2ccc(Cl)c(C(F)(F)F)c2)cc1` [Compound 297, N-[4-Bromo-2-(4-chloro-3-trifluoromethyl-benzylidene-hydrazinocarbonyl)-phenyl]-4-[(2-diethylamino-ethylamino)-methyl]-benzamide], 6.02.
`CCN(CC)CCNCc1ccc(C(=O)Nc2ccc(Br)cc2C(=O)N/N=C/c2ccc(OC)cc2)cc1` [Compound 298, N-[4-Bromo-2-(4-methoxy-benzylidene-hydrazinocarbonyl)-phenyl]-4-[(2-diethylamino-ethylamino)-methyl]-benzamide]: the pIC50 is 5.04.
With `CCN(CC)CCNCc1ccc(C(=O)Nc2ccc(Br)cc2C(=O)N/N=C/c2cccc(OC)c2)cc1` [Compound 299, N-[4-Bromo-2-(3-methoxy-benzylidene-hydrazinocarbonyl)-phenyl]-4-[(2-diethylamino-ethylamino)-methyl]-benzamide] the figure was 5.41; with `Cc1ccc(/C=N/NC(=O)c2cc(Br)ccc2NC(=O)c2ccc(CNCCCN(CCO)CCO)cc2)cc1C` [Compound 300, 4-({3-[Bis-(2-hydroxy-ethyl)-amino]-propylamino}-methyl)-N-[4-bromo-2-(3,4-dimethyl-benzylidene-hydrazinocarbonyl)-phenyl]-benzamide], 5.72.
With `O=C(Nc1ccc(Br)cc1C(=O)N/N=C/c1cccc(F)c1)c1ccc(CNCCCN(CCO)CCO)cc1` [Compound 301, 4-({3-[Bis-(2-hydroxy-ethyl)-amino]-propylamino}-methyl)-N-[4-bromo-2-(3-fluoro-benzylidene-hydrazinocarbonyl)-phenyl]-benzamide] the figure was 4.82; with `O=C(Nc1ccc(Br)cc1C(=O)N/N=C/c1ccc(Cl)c(C(F)(F)F)c1)c1ccc(CNCCCN(CCO)CCO)cc1` [Compound 302, 4-({3-[Bis-(2-hydroxy-ethyl)-amino]-propylamino}-methyl)-N-[4-bromo-2-(4-chloro-3-trifluoromethyl-benzylidene-hydrazinocarbonyl)-phenyl]-benzamide], 5.95.
For the molecule `Cc1ccc(/C=N/NC(=O)c2cc(Br)ccc2NC(=O)c2ccc(CN(CC(C)O)CC(C)O)cc2)cc1C` (centres unmarked) [Compound 303, 4-{[Bis-(2-hydroxy-propyl)-amino]-methyl}-N-[4-bromo-2-(3,4-dimethyl-benzylidene-hydrazinocarbonyl)-phenyl]-benzamide], the pIC50 was 5.95.
The result for `Cc1ccc(/C=N/NC(=O)c2cc(Br)ccc2NC(=O)c2ccc(CN(CC(C)O)CC(C)O)cc2)cc1` (centres unmarked) [Compound 304, 4-{[Bis-(2-hydroxy-propyl)-amino]-methyl}-N-[4-bromo-2-(4-methyl-benzylidene-hydrazinocarbonyl)-phenyl]-benzamide] reads 5.91.
With `Cc1ccc(/C=N/NC(=O)c2cc(Br)ccc2NC(=O)c2ccc(CN3CCN(CC(=O)N4CCOCC4)CC3)cc2)cc1C` [Compound 305, N-[4-Bromo-2-(3,4-dimethyl-benzylidene-hydrazinocarbonyl)-phenyl]-4-[4-(2-morpholin-4-yl-2-oxo-ethyl)-piperazin-1-ylmethyl]-benzamide] the figure was 5.61; with `O=C(Nc1ccc(Br)cc1C(=O)N/N=C/c1ccc(Cl)c(C(F)(F)F)c1)c1ccc(CN2CCN(CC(=O)N3CCOCC3)CC2)cc1` [Compound 306, N-[4-Bromo-2-(4-chloro-3-trifluoromethyl-benzylidene-hydrazinocarbonyl)-phenyl]-4-[4-(2-morpholin-4-yl-2-oxo-ethyl)-piperazin-1-ylmethyl]-benzamide], 5.67.
The result for `COc1ccc(/C=N/NC(=O)c2cc(Br)ccc2NC(=O)c2ccc(CN3CCN(CC(=O)N4CCOCC4)CC3)cc2)cc1` [Compound 307, N-[4-Bromo-2-(4-methoxy-benzylidene-hydrazinocarbonyl)-phenyl]-4-[4-(2-morpholin-4-yl-2-oxo-ethyl)-piperazin-1-ylmethyl]-benzamide] reads 4.39; that for `Cc1ccc(/C=N/NC(=O)c2cc(Br)ccc2NC(=O)c2ccc(CN3CCC(N4CCCCC4)CC3)cc2)cc1C` [Compound 308, 4-[1,4′]Bipiperidinyl-1′-ylmethyl-N-[4-bromo-2-(3,4-dimethyl-benzylidene-hydrazinocarbonyl)-phenyl]-benzamide], 5.56.
With `Cc1ccc(/C=N/NC(=O)c2cc(Br)ccc2NC(=O)c2ccc(CN3CCC(N4CCCCC4)CC3)cc2)cc1` [Compound 309, 4-[1,4′]Bipiperidinyl-1′-ylmethyl-N-[4-bromo-2-(4-methyl-benzylidene-hydrazinocarbonyl)-phenyl]-benzamide], the pIC50 is 4.82.
With `Cc1cccc(/C=N/NC(=O)c2cc(Br)ccc2NC(=O)c2ccc(CN3CCC(N4CCCCC4)CC3)cc2)c1` [Compound 310, 4-[1,4′]Bipiperidinyl-1′-ylmethyl-N-[4-bromo-2-(3-methyl-benzylidene-hydrazinocarbonyl)-phenyl]-benzamide] the figure was 5.11.
With `O=C(Nc1ccc(Br)cc1C(=O)N/N=C/c1ccc(F)cc1)c1ccc(CN2CCC(N3CCCCC3)CC2)cc1` [Compound 311, 4-[1,4′]Bipiperidinyl-1′-ylmethyl-N-[4-bromo-2-(4-fluoro-benzylidene-hydrazinocarbonyl)-phenyl]-benzamide], the pIC50 is 5.11.
